The subject of this data set is CCRIS mutagenicity, Ames/micronucleus/aberration tests. Nature of the data set: CCRIS mutagenicity studies.
Setting [1] is: Test System: AMES SALMONELLA TYPHIMURIUM, Strain/Indicator: TA98, Metabolic Activation: NONE, Method: STANDARD PLATE.
[2] abbreviates: Test System: AMES SALMONELLA TYPHIMURIUM, Strain/Indicator: TA100, Metabolic Activation: NONE, Method: PREINCUBATION
Setting [3] is: Test System: AMES SALMONELLA TYPHIMURIUM, Strain/Indicator: TA100, Metabolic Activation: NONE, Method: STANDARD PLATE.
[4] abbreviates: Test System: AMES SALMONELLA TYPHIMURIUM, Strain/Indicator: TA1535, Metabolic Activation: NONE, Method: STANDARD PLATE.
The mark [5] stands for this setting: Test System: AMES SALMONELLA TYPHIMURIUM, Strain/Indicator: TA97, Metabolic Activation: NONE, Method: PREINCUBATION
[6] abbreviates: Test System: AMES SALMONELLA TYPHIMURIUM, Strain/Indicator: TA98, Metabolic Activation: NONE, Method: PREINCUBATION
Setting [7] is: Test System: AMES SALMONELLA TYPHIMURIUM, Strain/Indicator: TA1535, Metabolic Activation: NONE, Method: PREINCUBATION
[8] abbreviates: Test System: AMES SALMONELLA TYPHIMURIUM, Strain/Indicator: TA98, Metabolic Activation: HAMSTER, LIVER, S-9, AROCLOR 1254 (10%), Method: PREINCUBATION
The mark [9] stands for this setting: Test System: AMES SALMONELLA TYPHIMURIUM, Strain/Indicator: TA98, Metabolic Activation: RAT, LIVER, S-9, AROCLOR 1254 (10%), Method: PREINCUBATION
The mark [10] stands for this setting: Test System: AMES SALMONELLA TYPHIMURIUM, Strain/Indicator: TA100, Metabolic Activation: HAMSTER, LIVER, S-9, AROCLOR 1254 (10%), Method: PREINCUBATION
Setting [11] is: Test System: AMES SALMONELLA TYPHIMURIUM, Strain/Indicator: TA100, Metabolic Activation: RAT, LIVER, S-9, AROCLOR 1254 (10%), Method: PREINCUBATION
[12] abbreviates: Test System: AMES SALMONELLA TYPHIMURIUM, Strain/Indicator: TA1535, Metabolic Activation: HAMSTER, LIVER, S-9, AROCLOR 1254 (10%), Method: PREINCUBATION
[13] abbreviates: Test System: AMES SALMONELLA TYPHIMURIUM, Strain/Indicator: TA1535, Metabolic Activation: RAT, LIVER, S-9, AROCLOR 1254 (10%), Method: PREINCUBATION

Active and inactive are the calls of the source. No rule for the calls is given here.

`NCCc1c[nH]c2ccccc12`: the mutagenic call reads like this: (Test System: AMES SALMONELLA TYPHIMURIUM, Strain/Indicator: TA97A, Metabolic Activation: NONE, Method: STANDARD PLATE) “inactive; negative”; (Test System: AMES SALMONELLA TYPHIMURIUM, Strain/Indicator: TA97A, Metabolic Activation: RAT LIVER S-9, PHENOBARBITOL/BETA-NAPHTHOFLAVONE, Method: STANDARD PLATE) “inactive; negative”; under setting [1], “inactive; negative”; (Test System: AMES SALMONELLA TYPHIMURIUM, Strain/Indicator: TA98, Metabolic Activation: RAT LIVER S-9, PHENOBARBITOL/BETA-NAPHTHOFLAVONE, Method: STANDARD PLATE) “inactive; negative”; under setting [2], “inactive; negative”; under setting [3], “inactive; negative”. For the same compound, the mutagenic call by setting is: (Test System: AMES SALMONELLA TYPHIMURIUM, Strain/Indicator: TA100, Metabolic Activation: RAT LIVER S-9, PHENOBARBITOL/BETA-NAPHTHOFLAVONE, Method: STANDARD PLATE) “inactive; negative”; under setting [4], “inactive; negative”; (Test System: AMES SALMONELLA TYPHIMURIUM, Strain/Indicator: TA1535, Metabolic Activation: RAT LIVER S-9, PHENOBARBITOL/BETA-NAPHTHOFLAVONE, Method: STANDARD PLATE) “inactive; negative”; (Test System: E.COLI, Strain/Indicator: WP2/UVRA, Metabolic Activation: NONE, Method: STANDARD PLATE) “inactive; negative”; (Test System: E.COLI, Strain/Indicator: WP2/UVRA, Metabolic Activation: RAT LIVER S-9, PHENOBARBITOL/BETA-NAPHTHOFLAVONE, Method: STANDARD PLATE) “inactive; negative”.
Take `O[C@H]1[C@H]2O[C@H]2C=C[C@@H]1O`: the mutagenic call was “inactive; negative” under setting [5], “inactive; negative” under setting [6] and “active; positive” under setting [7].
Take `Oc1c(Cl)cccc1Cl`: the mutagenic call was “inactive; negative” (Test System: CHINESE HAMSTER V-79, Strain/Indicator: V-79/6-THIOGUANINE, Metabolic Activation: CELL-MEDIATED, Method: STANDARD PLATE); “inactive; negative” (Test System: CHINESE HAMSTER V-79, Strain/Indicator: V-79/6-THIOGUANINE, Metabolic Activation: NONE, Method: STANDARD PLATE); “inactive; negative” (Test System: CHINESE HAMSTER V-79, Strain/Indicator: V-79/6-THIOGUANINE, Metabolic Activation: PRIMARY RAT HEPATOCYTES, Method: STANDARD PLATE).
Consider `CCN(CC)c1cccc(O)c1`, for which the mutagenic call (Test System: AMES SALMONELLA TYPHIMURIUM, Strain/Indicator: TA97, Metabolic Activation: HAMSTER, LIVER, S-9, AROCLOR 1254 (10%), Method: PREINCUBATION) is “active; positive”; the mutagenic call under setting [5] is “inactive; negative”; the mutagenic call (Test System: AMES SALMONELLA TYPHIMURIUM, Strain/Indicator: TA97, Metabolic Activation: RAT, LIVER, S-9, AROCLOR 1254 (10%), Method: PREINCUBATION) is “active; positive”; the mutagenic call under setting [8] was “active; positive”; the mutagenic call under setting [6] was “inactive; negative”; the mutagenic call under setting [9] was “active; positive”. Further, the mutagenic call under setting [10] is “active; positive”; the mutagenic call under setting [2] was “inactive; negative”; the mutagenic call under setting [11] was “inactive; negative”; the mutagenic call under setting [12] is “inactive; negative”; the mutagenic call under setting [7] was “inactive; negative”; the mutagenic call under setting [13] is “inactive; negative”.
As for `CCCC(C)(COC(N)=O)COC(=O)NC(C)C` (stereo not given), the mutagenic call was “inactive; negative” under setting [8]; “inactive; negative” under setting [6]; “inactive; negative” under setting [9]; “inactive; negative” under setting [10]; “inactive; negative” under setting [2]; “inactive; negative” under setting [11]. The mutagenic call under setting [12] is “inactive; negative”; the mutagenic call under setting [7] is “inactive; negative”; the mutagenic call under setting [13] was “inactive; negative”; the mutagenic call (Test System: AMES SALMONELLA TYPHIMURIUM, Strain/Indicator: TA1537, Metabolic Activation: HAMSTER, LIVER, S-9, AROCLOR 1254 (10%), Method: PREINCUBATION) is “inactive; negative”; the mutagenic call (Test System: AMES SALMONELLA TYPHIMURIUM, Strain/Indicator: TA1537, Metabolic Activation: NONE, Method: PREINCUBATION) was “inactive; negative”; the mutagenic call (Test System: AMES SALMONELLA TYPHIMURIUM, Strain/Indicator: TA1537, Metabolic Activation: RAT, LIVER, S-9, AROCLOR 1254 (10%), Method: PREINCUBATION) was “inactive; negative”.
Regarding `Cc1cc(S(=O)(=O)O)ccc1N`, the mutagenic call reads like this: (Test System: AMES SALMONELLA TYPHIMURIUM, Strain/Indicator: TA98, Metabolic Activation: HAMSTER, LIVER, S-9, AROCLOR 1254, Method: STANDARD PLATE) “inactive; negative”; under setting [1], “inactive; negative”; (Test System: AMES SALMONELLA TYPHIMURIUM, Strain/Indicator: TA98, Metabolic Activation: RAT, LIVER, S-9, AROCLOR 1254, Method: STANDARD PLATE) “inactive; negative”; (Test System: AMES SALMONELLA TYPHIMURIUM, Strain/Indicator: TA100, Metabolic Activation: HAMSTER, LIVER, S-9, AROCLOR 1254, Method: STANDARD PLATE) “inactive; negative”; under setting [3], “inactive; negative”; (Test System: AMES SALMONELLA TYPHIMURIUM, Strain/Indicator: TA100, Metabolic Activation: RAT, LIVER, S-9, AROCLOR 1254, Method: STANDARD PLATE) “inactive; negative”. Besides, the mutagenic call is “inactive; negative” (Test System: AMES SALMONELLA TYPHIMURIUM, Strain/Indicator: TA1535, Metabolic Activation: HAMSTER, LIVER, S-9, AROCLOR 1254, Method: STANDARD PLATE); “inactive; negative” under setting [4]; “inactive; negative” (Test System: AMES SALMONELLA TYPHIMURIUM, Strain/Indicator: TA1535, Metabolic Activation: RAT, LIVER, S-9, AROCLOR 1254, Method: STANDARD PLATE); “inactive; negative” (Test System: AMES SALMONELLA TYPHIMURIUM, Strain/Indicator: TA1537, Metabolic Activation: HAMSTER, LIVER, S-9, AROCLOR 1254, Method: STANDARD PLATE); “inactive; negative” (Test System: AMES SALMONELLA TYPHIMURIUM, Strain/Indicator: TA1537, Metabolic Activation: NONE, Method: STANDARD PLATE); “inactive; negative” (Test System: AMES SALMONELLA TYPHIMURIUM, Strain/Indicator: TA1537, Metabolic Activation: RAT, LIVER, S-9, AROCLOR 1254, Method: STANDARD PLATE). Moreover, the mutagenic call (Test System: AMES SALMONELLA TYPHIMURIUM, Strain/Indicator: TA1538, Metabolic Activation: HAMSTER, LIVER, S-9, AROCLOR 1254, Method: STANDARD PLATE) is “inactive; negative”; the mutagenic call (Test System: AMES SALMONELLA TYPHIMURIUM, Strain/Indicator: TA1538, Metabolic Activation: NONE, Method: STANDARD PLATE) was “inactive; negative”; the mutagenic call (Test System: AMES SALMONELLA TYPHIMURIUM, Strain/Indicator: TA1538, Metabolic Activation: RAT, LIVER, S-9, AROCLOR 1254, Method: STANDARD PLATE) is “inactive; negative”; the mutagenic call (Test System: MOUSE LYMPHOMA, Strain/Indicator: L5178Y (TK+/TK-), Metabolic Activation: NONE, Method: SUSPENSION/PLATE) is “inactive; negative. reevaluation of results: negative”; the mutagenic call (Test System: MOUSE LYMPHOMA, Strain/Indicator: L5178Y (TK+/TK-), Metabolic Activation: RAT, LIVER, S-9, AROCLOR 1254, Method: SUSPENSION/PLATE) is “active; positive. reevaluation of results: positive”.
Regarding `ClCc1c2ccccc2c2ccc3cccc4ccc1c2c43`, the mutagenic call under setting [1] was “inactive; negative” and the mutagenic call under setting [3] is “inactive; negative”.

Source of the values: PubChem BioAssay AID1259407 (Chemical Carcinogenesis Research Information System (CCRIS), 2018).
